Measured values taken from patent publication US20240409496A1, “SPERMINE DERIVATIVES AS HEPARIN ANTIDOTES” (CONSEJO SUPERIOR DE INVESTIGACIONES CIENTÍFICAS (CSIC), priority 2021, published 2024).

Columns and labels:
[1] = Surface Plasmon Resonance (SPR) on heparin-functionalized chips; assay type: binding
Procedure: Surface Plasmon Resonance (SPR): Affinity experiments between inhibitors and heparin were performed on an Open SPR™(Nicoya). All measurements were performed at 25° C. using a working buffer of 25 mM Tris at pH 7.5. Biotin-loaded sensor chips (NICOYA) were further functionalized with streptavidine (50 μg/mL) and later with biotin-heparin (50 μg/mL). Binding experiments to heparin were performed by injecting inhibitors at desired concentrations and at a rate of 40 μL/min. Between binding assays, the surface was regenerated by exposure to an injection of 10 mM HCl. Fitting has been performed by Trace Drawer software using a ‘one-to-one two-state algorithm’, which considers a 1:1 binding with a further equilibrium like a conformational change. Results obtained from three independent experiments at three different concentrations of the ligands were fit globally to render the corresponding on/off rate constants and the apparent dissociation constants (KD^app Table 1, as shown below).
Binding of the spermine derivatives to the heparin target. Surface Plasmon Resonance (SPR) on heparin-functionalized chips were used to determine the apparent dissociation constant of selected molecules (KD^app, Table 1).

[FXa-Hep-ATIII] complex = Blood coagulation factor in vitro enzymatic assay (FXa/ATIII/Hep, chromogenic peptide hydrolysis); assay type: biochemical, human; settings: for in vitro potency as Hep antidote (recovery of FXa activity), rank order: 1 μM of each binder, Hep 0.1 IU/mL, FIG. 2B; for activity as Hep antidote in the enzymatic assay compared with ciraparantag: percent hydrolysis at 30 min, FIG. 2C
Procedure: Blood coagulation factor in vitro enzymatic assays: Recombinant antithrombin Ill and coagulation Factor Xa were obtained from the Berichrom Heparin test, supplied by SIEMENS. Following the indications of the test kit, stock solutions were prepared as follows: Human antithrombin III (1 IU/mL), Factor Xa reagent (0.4 μg/mL, human plasma fraction with the additives Tris, sodium chloride and EDTA) and a chromogenic substrate specific for factor Xa (4 mM of Z-D-Leu-Gly-ArgANBA-methyl amide). On the other hand, 4-nitroaniline (Sigma Aldrich) was added to the substrate solution at a concentration of 1.6 mM and was used as internal standard to quantify the hydrolysis of the chromogenic substrate. Heparin (sodium salt from porcine intestinal mucosa, polydisperse, from 6000 to 30000 Daltons) was purchased from Sigma-Aldrich. All compounds were dissolved in mili-Q water at the desired stock concentrations prior to start the assays and kept at 4° C. Various concentrations of the ligand, heparin (0.1 IU/mL), human antithrombin Ill solution (3.5 μL) and Factor Xa reagent solution (35 μL) were added in order to an Eppendorf and brought to a total volume of 145 μL. Then, 20 μL of Reagent Substrate solution was added to start the experiment and the mixture was vigorously shaken at 25° C. 20 μL samples were taken at minutes 5/10/15/20/30/50/80/120, diluted with 40 μL of acetic acid (20% v/v), and injected in the analytical HPLC. The gradient ranged from 5% ACN (0.1% formic acid) in water (0.1% formic acid) to 100% ACN in 24 minutes using a 15×4.6 mm KROMAPHASE C18 5.0 μm column (retention time of cleaved chromophore 9.1 min, retention time of chromogenic substrate 13.9 min, retention time of 4-nitroaniline 15.4 min). Concentrations of reagents have been adjusted compared with previous studies with the intention to slow down the total exhaustion of peptide substrate. In this way the activity can be more carefully modulated and any change is easier to detect. FXa/ATIII activity was represented as percent of hydrolysis, which was calculated from the normalized area of cleaved peptide at 405 nm at each corresponding time point. Experiment carried out in absence of heparin was considered as maximum of activity while experiment with heparin and no ligand was considered as negative control (maximum inhibition of FXa by heparin). Concentration of heparin was selected for the measurement to render a significant inhibition within experimental time, while allowing the reaction to proceed.
In vitro inhibition of heparin activity. The effect of the binders as Hep antidotes can be tested in vitro using an enzymatic reaction related to the blood coagulation process (FIG. 2A). This test employs human recombinant coagulation factor Xa (FXa) and antithrombin III (ATIII), with the synthetic peptide Z-D-LGR-N(Me)ANBA as the substrate of the FXa protease to mimic the prothrombin to thrombin transformation that triggers blood coagulation. Heparin forms a ternary complex with ATIII and FXa with a low hydrolytic activity, as a model for the anticoagulation effect of Hep. The addition of an efficient Hep binder dissociates the [FXa-Hep-ATIII] complex, thus releasing the active form of FXa that cleaves the substrate. The peptide hydrolysis can be readily monitored by analytical HPLC thanks to the ANBA chromophore, as an accurate measurement of the reaction kinetics.
In parallel experiments, the addition of equal concentration (1 μM) of each of the binders produces a different level of recovery of the FXa activity. […] Actually, several selected molecules derived from spermine were tested in the enzymatic assay (FIG. 2C) most of them showing activity in the reversal of the heparin action.

[2] = system: freshly extracted mouse blood with Hep; assay: Ex vivo blood coagulation assay; settings: for reversal of anticoagulant effect of Hep in mouse blood (clot formation): Hep 130 μM, various ligand concentrations, 15 minutes, FIG. 3A
Procedure: Ex vivo blood coagulation assays: Freshly collected mouse blood was collected and directly used without further treatment. 300 μL aliquots were prepared. To them, Hep (130 μM), and various concentration of ligand (3AC or 3FF) were added. The samples of the different conditions were added to an Eppendorf tube and a picture was taken after 15 minutes. The clot formation was confirmed by turning around the Eppendorf vials.
Reversing the anticoagulant activity of heparin: In order to check the efficacy of the antidotes in a more representative environment, 3FF and 3AC were tested in real blood coagulation assays. Thus, it has been monitored the coagulation of freshly extracted mouse blood in the absence or presence of Hep, and upon addition of different concentrations of 3FF and 3AC.

heparinized mice = assay: In vivo tail transection assay with mice; set-up: species or system mouse; settings: for reversal of Hep activity in vivo (bleeding of heparinized mice): Hep 100 IU/kg i.v. followed by 2.2 or 4.4 mg/kg, blood collected 10 minutes, FIG. 3B; for blood loss of heparinized mice at the highest doses: Hep 100 IU/kg, highest dose (4.4 mg/kg)
Procedure: In vivo tail transection assays with mice: Eight-weeks old CD-1 male mice (Janvier-Labs) were used for the study. Animals were housed under a 12 h light: dark cycle in an environmentally controlled room and free access to water and food. Mice were randomly assigned into 6 groups (n=6 for each group). Animals were anesthetized by i.p. injections of 0.465 mg/kg xylazine (Rompun, Bayer DVM) and 1.395 mg/kg ketamine (Imalgene 100, Merial Laboratorios). After anesthetizing them, different solutions were injected intravenously according to the assigned group: Saline group (only saline was given), Hep group (Hep injection, 100 IU/kg), 3AC (two groups, Hep injection followed by injection of 3AC at 2.2 mg/kg or 4.4 mg/kg) and 3FF (two groups, Hep injection followed by injection of 3FF at 2.2 mg/kg or 4.4 mg/kg). Two additional control groups (n=3) were included in which only the ligand (3AC or 3FF) at the highest dose (4.4 mg/kg) was injected. At 5 minutes after injections, tails were transected at 5 mm from the tip and immediately inserted in a tube containing 1 ml of saline buffer immersed in a water bath at 37° C., where the blood draining out of the wound was collected for 10 minutes. The blood draining out from the wound was collected in each tube. Tails were let bleed during 10 minutes. The total blood volume in each tube was quantified by spectrophotometry (absorbance at 414 nm) from a standard curve that was constructed with known volumes of blood hemoglobin concentration and corresponding absorbance value. Statistical analysis of the data was done with Kaleida Graph 4.5.4 using ANOVA.
3FF and 3AC were tested in an in vivo coagulation model. It was thus performed the tail transection assay with mice after consecutive injection of Hep, and the drugs at two different doses each (FIG. 3B). The control groups injecting saline or Hep, and those corresponding to just the drugs were also included.

SMILES | affinity to Hep compared with ciraparantag [1] | in vitro potency as Hep antidote (recovery of FXa activity), rank order ([FXa-Hep-ATIII] complex) | activity as Hep antidote in the enzymatic assay compared with ciraparantag ([FXa-Hep-ATIII] complex) | reversal of anticoagulant effect of Hep in mouse blood (clot formation) [2] | reversal of Hep activity in vivo (bleeding of heparinized mice) (heparinized mice) | blood loss of heparinized mice at the highest doses (heparinized mice) | ex vivo antidote quality, 3AC compared with 3FF ([2]; equal doses, qualitative) | in vivo reversal potency, 3AC compared with 3FF (heparinized mice; tail transection, mice)
Oc1ccc2ccccc2c1CNCCCNCCCCNCCCNCc1c(O)ccc2ccccc12 [Compound 3FF, 1,1′-(2,6,11,15-tetraazahexadecane-1,16-diyl)bis(naphthalen-2-ol)] | higher affinity to Hep than ciraparantag | 3FF (inverted solid triangles)<3AC | comparable with the drug ciraparantag | able to revert the anticoagulant effect of Hep in a dose-response manner | efficient antidotes of Hep also in vivo, strongly reducing the bleeding of heparinized mice | reversed to values very similar to those of the control group injected with saline | – | –
Oc1ccccc1CNCCCNCCCCNCCCNCc1cccc2ccccc12 [Compound 3AL, 2-(16-(naphthalen-1-yl)-2,6,11,15-tetraazahexadecyl)phenol, reference compound] | – | 3AL (X symbols)≤3AG | – | – | – | – | – | –
Oc1ccccc1CNCCCNCCCCNCCCNCc1ccc2ccccc2c1O [Compound 3AG, 2-(16-(2-hydroxyphenyl)-2,6,11,15-tetraazahexadecyl)naphthalen-1-ol] | – | 3AG (rhombuses)<3AF | – | – | – | – | – | –
Oc1ccccc1CNCCCNCCCCNCCCNCc1c(O)ccc2ccccc12 [Compound 3AF, 1-(16-(2-hydroxyphenyl)-2,6,11,15-tetraazahexadecyl)naphthalen-2-ol] | – | 3AF (open circles)<3FF | – | – | – | – | – | –
Oc1ccccc1CNCCCNCCCCNCCCNCc1ccc2c(c1)Cc1ccccc1-2 [Compound 3AC, 2-(16-(9H-fluoren-2-yl)-2,6,11,15-tetraazahexadecyl)phenol] | higher affinity to Hep than ciraparantag | <3AC | even more potent | able to revert the anticoagulant effect of Hep in a dose-response manner | efficient antidotes of Hep also in vivo, strongly reducing the bleeding of heparinized mice | reversed to values very similar to those of the control group injected with saline | better antidote than 3FF | more potent reversal agent than 3FF
